# pIC50: −log10 of the molar value.
# Target: human MDM2 protein (amino acids 2-188) (Homo sapiens (Human), UniProt Q00987)
# Test: TR-FRET assay, p53-MDM2 Assay 2 (modified)
# Type: binding
# Conditions: TR-FRET; 0.1 nM MDM2, 0.1 nM Europium labeled streptavidin, Tecan genios Pro reader; read-out: IC50 p53-MDM2 Assay 2
# Summary of the method: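 IC50 values were curve-fitted from the time-resolved 665/620 nm emission ratio after 340 nm excitation. The assay combined 0.625 nM europium-streptavidin donor with 1.25 nM C-terminally biotinylated MDM2 2–188 (15 min, RT), followed by 15 min with 10 nM Cy5-labeled p53 18–26 acceptor peptide.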
# Sequence of human MDM2 protein (amino acids 2-188) (Q00987 2-188): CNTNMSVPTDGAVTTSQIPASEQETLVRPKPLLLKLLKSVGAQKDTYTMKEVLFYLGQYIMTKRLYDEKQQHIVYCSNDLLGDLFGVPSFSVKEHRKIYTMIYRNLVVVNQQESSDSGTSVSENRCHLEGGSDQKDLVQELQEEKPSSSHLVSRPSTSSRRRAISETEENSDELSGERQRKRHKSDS
row,Compound,pIC50
1,"CNc1ncc(-c2cc3c(n2C(C)C)C(c2ccc(C#N)cc2)N(c2cc(Cl)cn(C)c2=O)C3=O)c(OC)n1 (stereo not drawn) [Example 130, 4-[5-(5-Chloro-1-methyl-2-oxo-1,2-dihydro-pyridin-3-yl)-1-isopropyl-2-(4-methoxy-2-methylamino-pyrimidin-5-yl)-4-oxo-1,4,5,6-tetrahydro-pyrrolo[3,4-b]pyrrol-6-yl]-benzonitrile]",8.97
2,"COc1nc(N(C)C)ncc1-c1cc2c(n1C(C)C)C(c1ccc(C#N)cc1)N(c1cc(Cl)cn(C)c1=O)C2=O (stereo not drawn) [Example 131, 4-[5-(5-Chloro-1-methyl-2-oxo-1,2-dihydro-pyridin-3-yl)-2-(2-dimethylamino-4-methoxy-pyrimidin-5-yl)-1-isopropyl-4-oxo-1,4,5,6-tetrahydro-pyrrolo[3,4-b]pyrrol-6-yl]-benzonitrile]",9.53
3,"COc1ncc(-c2cc3c(n2C(C)C)C(c2ccc(C#N)cc2)N(c2cc(Cl)cn(C)c2=O)C3=O)c(OC)n1 (stereo not drawn) [Example 132, 4-[5-(5-Chloro-1-methyl-2-oxo-1,2-dihydro-pyridin-3-yl)-2-(2,4-dimethoxy-pyrimidin-5-yl)-1-isopropyl-4-oxo-1,4,5,6-tetrahydro-pyrrolo[3,4-b]pyrrol-6-yl]-benzonitrile]",8.94
4,"CNc1ncc(-c2cc3c(n2C(C)C)C(c2ccc(C#N)cc2)N(c2cc(Cl)c(=O)n(C)c2)C3=O)c(OC)n1 (stereo not drawn) [Example 133, 4-[5-(5-Chloro-1-methyl-6-oxo-1,6-dihydro-pyridin-3-yl)-1-isopropyl-2-(4-methoxy-2-methylamino-pyrimidin-5-yl)-4-oxo-1,4,5,6-tetrahydro-pyrrolo[3,4-b]pyrrol-6-yl]-benzonitrile]",9.49
5,"COc1nc(N)ncc1-c1cc2c(n1C(C)C)C(c1ccc(C#N)cc1)N(c1c[nH]c(=O)c(Cl)c1)C2=O (stereo not drawn) [Example 134, 4-[2-(2-Amino-4-methoxy-pyrimidin-5-yl)-5-(5-chloro-6-oxo-1,6-dihydro-pyridin-3-yl)-1-isopropyl-4-oxo-1,4,5,6-tetrahydro-pyrrolo[3,4-b]pyrrol-6-yl]-benzonitrile]",8.90
6,"COc1ncc(-c2cc3c(n2C(C)C)C(c2ccc(C#N)cc2)N(c2c[nH]c(=O)c(Cl)c2)C3=O)c(OC)n1 (stereo not drawn) [Example 135, 4-[5-(5-Chloro-6-oxo-1,6-dihydro-pyridin-3-yl)-2-(2,4-dimethoxy-pyrimidin-5-yl)-1-isopropyl-4-oxo-1,4,5,6-tetrahydro-pyrrolo[3,4-b]pyrrol-6-yl]-benzonitrile]",9.37
7,"COc1nc(N(C)C)ncc1-c1cc2c(n1C(C)C)C(c1ccc(C#N)cc1)N(c1c[nH]c(=O)c(Cl)c1)C2=O (stereo not drawn) [Example 136, 4-[5-(5-Chloro-6-oxo-1,6-dihydro-pyridin-3-yl)-2-(2-dimethylamino-4-methoxy-pyrimidin-5-yl)-1-isopropyl-4-oxo-1,4,5,6-tetrahydro-pyrrolo[3,4-b]pyrrol-6-yl]-benzonitrile]",9.88
8,"CNc1ncc(-c2cc3c(n2C(C)C)C(c2ccc(C#N)cc2)N(c2c[nH]c(=O)c(Cl)c2)C3=O)c(OC)n1 (stereo not drawn) [Example 137, 4-[5-(5-Chloro-6-oxo-1,6-dihydro-pyridin-3-yl)-1-isopropyl-2-(4-methoxy-2-methylamino-pyrimidin-5-yl)-4-oxo-1,4,5,6-tetrahydro-pyrrolo[3,4-b]pyrrol-6-yl]-benzonitrile]",9.49
9,"COc1nc(N)ncc1-c1cc2c(n1C(C)C)C(c1ccc(Cl)cc1)N(c1c[nH]c(=O)c(Cl)c1)C2=O (stereo not drawn) [Example 138, 2-(2-Amino-4-methoxy-pyrimidin-5-yl)-5-(5-chloro-6-oxo-1,6-dihydro-pyridin-3-yl)-6-(4-chloro-phenyl)-1-isopropyl-5,6-dihydro-1H-pyrrolo[3,4-b]pyrrol-4-one]",9.47
10,"COc1ncc(-c2cc3c(n2C(C)C)C(c2ccc(Cl)cc2)N(c2c[nH]c(=O)c(Cl)c2)C3=O)c(OC)n1 (stereo not drawn) [Example 139, 5-(5-Chloro-6-oxo-1,6-dihydro-pyridin-3-yl)-6-(4-chloro-phenyl)-2-(2,4-dimethoxy-pyrimidin-5-yl)-1-isopropyl-5,6-dihydro-1H-pyrrolo[3,4-b]pyrrol-4-one]",9.58
11,"COc1nc(N(C)C)ncc1-c1cc2c(n1C(C)C)C(c1ccc(Cl)cc1)N(c1c[nH]c(=O)c(Cl)c1)C2=O (stereo not drawn) [Example 140, 5-(5-Chloro-6-oxo-1,6-dihydro-pyridin-3-yl)-6-(4-chloro-phenyl)-2-(2-dimethylamino-4-methoxy-pyrimidin-5-yl)-1-isopropyl-1-5,6-dihydro-1H-pyrrolo[3,4-b]pyrrol-4-one]",9.64
12,"COc1nc(N)ncc1-c1cc2c(n1C(C)C)C(c1ccc(Cl)cc1)N([C@H]1CC[C@H](OC)CC1)C2=O (stereo partly drawn) [Example 141, 2-(2-Amino-4-methoxy-pyrimidin-5-yl)-6-(4-chloro-phenyl)-1-isopropyl-5-(trans-4-methoxy-cyclohexyl)-5,6-dihydro-1H-pyrrolo[3,4-b]pyrrol-4-one]",8.16
13,"COc1nc(N(C)C)ncc1-c1cc2c(n1C(C)C)C(c1ccc(Cl)cc1)N([C@H]1CC[C@H](OC)CC1)C2=O (stereo partly drawn) [Example 142, 6-(4-Chloro-phenyl)-2-(2-dimethylamino-4-methoxy-pyrimidin-5-yl)-1-isopropyl-5-(trans-4-methoxy-cyclohexyl)-5,6-dihydro-1H-pyrrolo[3,4-b]pyrrol-4-one]",9.13
14,"COc1ncc(-c2cc3c(n2C(C)C)C(c2ccc(Cl)cc2)N([C@H]2CC[C@H](OC)CC2)C3=O)c(OC)n1 (stereo partly drawn) [Example 143, 6-(4-Chloro-phenyl)-2-(2,4-dimethoxy-pyrimidin-5-yl)-1-isopropyl-5-(trans-4-methoxy-cyclohexyl)-5,6-dihydro-1H-pyrrolo[3,4-b]pyrrol-4-one]",8.77
15,"COc1ccccc1-c1cc2c(n1C(C)C)C(c1ccc(Cl)cc1C)N(c1cc(Cl)c(=O)n(C)c1)C2=O (stereo not drawn) [Example 144, 5-(5-Chloro-1-methyl-6-oxo-1,6-dihydro-pyridin-3-yl)-6-(4-chloro-2-methyl-phenyl)-1-isopropyl-2-(2-methoxy-phenyl)-5,6-dihydro-1H-pyrrolo[3,4-b]pyrrol-4-one]",9.26
16,"CNC(=O)c1ccc(OC)c(-c2cc3c(n2C(C)C)C(c2ccc(Cl)cc2C)N(c2cc(Cl)c(=O)n(C)c2)C3=O)c1 (stereo not drawn) [Example 145, 3-[5-(5-Chloro-1-methyl-6-oxo-1,6-dihydro-pyridin-3-yl)-6-(4-chloro-2-methyl-phenyl)-1-isopropyl-4-oxo-1,4,5,6-tetrahydro-pyrrolo[3,4-b]pyrrol-2-yl]-4-methoxy-N-methyl-benzamide]",9.73
17,"COc1ncc(-c2cc3c(n2C(C)C)C(c2ccc(Cl)cc2C)N(c2cc(Cl)c(=O)n(C)c2)C3=O)c(OC)n1 (stereo not drawn) [Example 146, 5-(5-Chloro-1-methyl-6-oxo-1,6-dihydro-pyridin-3-yl)-6-(4-chloro-2-methyl-phenyl)-2-(2,4-dimethoxy-pyrimidin-5-yl)-1-isopropyl-5,6-dihydro-1H-pyrrolo[3,4-b]pyrrol-4-one]",9.67
18,"COc1nc(N(C)C)ncc1-c1cc2c(n1C(C)C)C(c1ccc(Cl)cc1C)N(c1cc(Cl)c(=O)n(C)c1)C2=O (stereo not drawn) [Example 147, 5-(5-Chloro-1-methyl-6-oxo-1,6-dihydro-pyridin-3-yl)-6-(4-chloro-2-methyl-phenyl)-2-(2-dimethylamino-4-methoxy-pyrimidin-5-yl)-1-isopropyl-5,6-dihydro-1H-pyrrolo[3,4-b]pyrrol-4-one]",9.79
